In PMC9500805, “Cytotoxic Assessment of 3,3-Dichloro-β-Lactams Prepared through Microwave-Assisted Benzylic C-H Activation from Benzyl-Tethered Trichloroacetamides Catalyzed by RuCl2(PPh3)3” (Molecules, 2022):
Values after ≈ are worked out from the molar mass of the structure shown.

Key:
[1] = Hemolysis assay with human erythrocytes; format: cell-based; conditions: human erythrocyte suspension, PBS pH 7.4, mean ± SD; for hemolysis at 10 µg/mL: compound at 10 µg/mL; for hemolysis at 80 µg/mL: compound at 80 µg/mL
Method: Human blood samples were obtained from the Banc de Sang i Teixits de Barcelona (Spain) from the Catalan Department of Health. Blood was deposited in tubes with the anticoagulant EDTA-K3. Blood samples were centrifuged at 3000 rpm at 4 °C for 10 min (Megafuge 2.0 R. Heraeus Instruments, Hanau, Germany) to induce sedimentation. Plasma was extracted with a Pasteur pipette. Next, the residual pellet was washed with PBS at pH 7.4. This procedure was repeated three times to remove residual leukocytes and platelets and to concentrate the erythrocytes. Following the last wash, the erythrocyte suspension was diluted (1:1) in PBS at pH 7.4 to obtain a suitable erythrocyte suspension (cell density of 8 × 10^9 cell/mL).
The hemolysis assay determined the capability of the different compounds to induce hemolysis of the erythrocyte membrane. Stock solutions of each compound at 1 mg/mL in PBS at pH 7.4 were prepared. Different volumes (10–80 µL) were placed in polystyrene tubes, and an aliquot of 25 µL of the erythrocyte suspensions was added to each tube. The final volume was 1 mL. The tubes were incubated at room temperature under rotatory conditions. Next, the tubes were centrifuged at 10,000 rpm for 5 min. The supernatants’ absorbance at 540 nm (Shimadzu UV-160A, Shimadzu, Duisburg, Germany) was compared with that of the control samples hemolyzed with distilled water (positive control). The negative control was obtained by incubating an aliquot of 25 µL of the erythrocyte suspension with PBS at pH 7.4.
The degree of hemolysis was determined with the following equation:Hemolysis (%) = 100 × (Abs − Ab0)/(Abs100 − Abs0) where Abs, Abs0 and Abs100 are the absorbance of test samples, of the suspension treated with isotonic physiological buffer saline (PBS) and of the suspension of complete hemolysis treated with distilled water, respectively.

HaCaT cells [2] = assay: Cell viability, MTT assay, HaCaT; format: cell-based; conditions: Homo sapiens, 24 h, MTT endpoint, 10–250 µg/mL tested
Method: (§1) The immortal human keratinocyte (HaCaT) and the squamous cell carcinoma (A431) cell lines were obtained from Celltec UB. Cells were grown in DMEM medium (4.5 g/L glucose) supplemented with 10% (v/v) FBS, 2 mM L-glutamine, 100 U/mL penicillin and 100 µg/mL streptomycin at 37 °C, 5% CO2. Cells were routinely cultured in 75 cm^2 culture flasks and were trypsinized using trypsin–EDTA when the cells reached approximately 80% confluence. The trypan blue assay, which allows a direct identification and enumeration of live (unstained) and dead (blue) cells in a given population, was used to evaluate the viability of the cells in the cell suspension obtained.
(§2) HaCaT cells (1 × 10^5 cells/mL) and A431 cells (5 × 10^4 cells/mL) were grown at the defined densities in the 60 central wells of a 96-well plate. Cells were incubated for 24 h in 5% CO2 at 37 °C. Then, the spent medium was removed, and cells were incubated for 24 h with the corresponding compound solutions (1 mg/mL) previously diluted in the minimum amount of DMF (dimethylformamide) and then in DMEM medium supplemented with 5% FBS (100 µL) at the required concentration range (10–250 µg/mL). The viability of the cells upon incubation with the β-lactam derivatives was assayed using 2 different endpoints: NRU and MTT.
(§3) Only living cells can reduce the yellow tetrazolium salt 3-(4,5-dimethyl-2-thiazolyl)-2,5-diphenyltetrazolium bromide (MTT) to insoluble purple formazan crystals. After 24 h of incubation of the cells with the corresponding NPs, the medium was removed, and 100 µL of MTT (Sigma-Aldrich, St. Louis, United States) in PBS (5 mg/mL) diluted 1:10 in culture medium without phenol red and without FBS (Lonza, Verviers, Belgium) was added to the cells. After 3 h of incubation, the medium was removed. Thereafter, 100 µL of DMSO (Sigma-Aldrich, St. Louis, MO, USA) was added to each well to dissolve the purple formazan crystals. Agitation and determination of the absorbance of the extracted solution were performed under the same conditions, as described in Section 3.4.1. Finally, the effect of each treatment was calculated as the percentage of tetrazolium salt reduction by viable cells relative to the control cells (cells without any treatment).
(§4) The corresponding half-maximal inhibitory concentration (IC50) values for the different formulations as a function of cell line and endpoint were determined from the fitting of concentration-dependent viability curves.

HaCaT cells [3] = assay: Cell viability, NRU assay, HaCaT; format: cell-based, human; conditions: 24 h, NRU endpoint, 10–250 µg/mL tested; for IC50: Homo sapiens
Method: as §1, §2
(§5) The neutral red uptake (NRU) assay is based on the accumulation of the dye in the lysosomes of viable cells. After the cells were incubated for 24 h with the corresponding systems, the medium was removed, and the solutions were incubated with the NR dye (Sigma-Aldrich, St. Louis, MO, USA) solution (50 µg/mL) dissolved in the medium without FBS and without phenol red (Lonza, Verviers, Belgium) for 3 h. Cells were then washed with sterile PBS, followed by the addition of 100 µL of a solution containing 50% absolute ethanol and 1% acetic acid in distilled water to extract the dye. To promote total dissolution of the dye, plates were placed in a microtiter-plate shaker for 5 min at room temperature. The absorbance of the resulting solutions was measured at 550 nm (Bio-Rad 550 microplate reader, Bio-Rad California, Hercules, CA, USA). Finally, the effect of each treatment was calculated as the percentage of dye uptake by viable cells relative to the control cells (cells without any treatment).
as §4

A431 cells [4] = assay: Cell viability, MTT assay, A431; format: cell-based, human; conditions: for IC50: Homo sapiens, A-431, 24 h, A431, 24 h, MTT endpoint, 10–250 µg/mL tested; for SI MTT: SI = IC50 HaCaT / IC50 A431, MTT endpoint
Method: as §1, §2, §3, §4
(§6) The corresponding selectivity indexes toward tumoral cells were calculated as the following ratio:SI = IC50 (non-tumoral cell line)/IC50 (tumoral cell line) where HaCaT keratinocytes were used as close representatives of a skin model cell line under non-tumoral conditions.

A431 cells [5] = assay: Cell viability, NRU assay, A431; format: cell-based, human; conditions: for IC50: Homo sapiens, A-431, 24 h, A431, 24 h, NRU endpoint, 10–250 µg/mL tested; for SI NRU: SI = IC50 HaCaT / IC50 A431, NRU endpoint
Method: as §1, §2, §5, §4, §6

HaCaT cells [6] = assay: Cell viability, HaCaT, MTT and NRU endpoints taken together; format: cell-based; conditions: Homo sapiens, 24 h, span over or independent of endpoint method
Method: as §1, §2
as §5, with “Cells were then washed with sterile PBS, followed by the addition of 100 µL of a solution containing 50% absolute ethanol and 1% acetic acid in distilled water to extract the dye. To promote total dissolution of the dye, plates were placed in a microtiter-plate shaker for 5 min at room temperature.” left out
Only living cells can reduce the yellow tetrazolium salt 3-(4,5-dimethyl-2-thiazolyl)-2,5-diphenyltetrazolium bromide (MTT) to insoluble purple formazan crystals. […] Agitation and determination of the absorbance of the extracted solution were performed under the same conditions, as described in Section 3.4.1. Finally, the effect of each treatment was calculated as the percentage of tetrazolium salt reduction by viable cells relative to the control cells (cells without any treatment).
as §4

A431 cells [7] = assay: Cell viability, A431, MTT and NRU endpoints taken together; format: cell-based; conditions: Homo sapiens, A-431; A431, 24 h, span over or independent of endpoint method
Method: as §1, §2, §5, §3, §4

[8] = Cell viability-screening assays (MTT and NRU), both cell lines; format: cell-based, human; conditions: human, HaCaT keratinocytes and A431 squamous cell carcinoma cells; HaCaT and A431, MTT and NRU, 24 h, 10–250 µg/mL; as a function of cell type and endpoint method; read-out: percentage viability compared to control cells
Method: as §1, §2, §5, §3

HaCaT and A431 cells = assay: as above; format: cell-based, human; conditions: regardless of the concentration range
Method: as §1, §2, §5, §3

[9] = system: human MCF-7 breast cancer cells; set-up: method as in PMID 21397510; conditions: cited from earlier work
[10] = human, pH 7.4, human RBC suspension

| SMILES | hemolysis at 10 µg/mL ([1]; human RBC suspension) [%] | hemolysis at 80 µg/mL ([1]; human RBC suspension) [%] | IC50 (HaCaT cells [2]) [µg/mL] | IC50 (HaCaT cells [3]) [µg/mL] | IC50 (A431 cells [4]) [µg/mL] | SI MTT (A431 cells [4]) | IC50 (A431 cells [5]) [µg/mL] | SI NRU (A431 cells [5]) | IC50 (HaCaT cells [6]) [µg/mL] | IC50 (A431 cells [7]) [µg/mL] | viability at 24 h [8] [%] | hemolysis at 10 µg/mL [1, 10] [%] | hemolysis at 80 µg/mL [1, 10] [%] | selectivity against the cell type (HaCaT vs A431 cytotoxicity) (HaCaT and A431 cells) | IC50 HaCaT NRU (HaCaT cells [3]) [µg/mL] | IC50 [9] [nM] |
| --- | --- | --- | --- | --- | --- | --- | --- | --- | --- | --- | --- | --- | --- | --- | --- | --- |
| CC(C)(C)N1C(=O)C(Cl)(Cl)C1c1ccccc1 (centres unmarked) [2b] | 0.01 ± 0.01 | 2.5 ± 0.97 | 19.8 (≈ 72.8 µM) | 48.3 (≈ 177 µM) | 46.9 (≈ 172 µM) | 0.42 | 29.5 (≈ 109 µM) | 1.63 | 20 to 49 (≈ 73.5 to 180 µM) | 30 to 47 (≈ 110 to 173 µM) | < 20 | – | – | – | – | – |
| Cc1ccccc1C1N(C(C)(C)C)C(=O)C1(Cl)Cl (centres unmarked) [2c] | – | – | ~250 (≈ 874 µM) | > 250 | ~250 (≈ 874 µM) | 1.0 | > 250 | >1.0 | – | – | ≤ 50 | 0.01 ± 0.01 | 0.01 ± 0.01 | – | – | – |
| Cc1ccc(C2N(C(C)(C)C)C(=O)C2(Cl)Cl)cc1 (centres unmarked) [2e] | – | – | 92.6 (≈ 324 µM) | 78.8 (≈ 275 µM) | 180 (≈ 629 µM) | 0.51 | 121 (≈ 422 µM) | 0.65 | 78 to 93 (≈ 273 to 325 µM) | 120 to 180 (≈ 419 to 629 µM) | < 20 | 0.01 ± 0.01 | 0.2 ± 0.23 | higher cytotoxicity in HaCaT cells than in A431 cells | – | – |
| CC(C)(C)N1C(=O)C(Cl)(Cl)C1c1cc(F)cc(F)c1 (centres unmarked) [2h] | – | – | > 250 | > 250 | 250 (≈ 811 µM) | >1.0 | 250 (≈ 811 µM) | >1.0 | > 250 | ~250 (≈ 811 µM) | ≤ 50 | 0.05 ± 0.05 | 0.12 ± 0.09 | the opposite results | – | – |
| CC(C)N1C(=O)C(Cl)(Cl)C1c1ccccc1 (centres unmarked) [2j] | – | – | 42.1 (≈ 163 µM) | 40.1 (≈ 155 µM) | 76.2 (≈ 295 µM) | 0.55 | 37.9 (≈ 147 µM) | 1.06 | 40 to 42 (≈ 155 to 163 µM) | 38 to 76 (≈ 147 to 294 µM) | < 20 | 0.01 ± 0.01 | 0.02 ± 0.02 | – | – | – |
| O=C1N(C2CCCCC2)C(c2ccccc2)C1(Cl)Cl (centres unmarked) [2k] | – | – | > 250 | ~220 (≈ 738 µM) | 250 (≈ 838 µM) | >1.0 | 220 (≈ 738 µM) | >1.13 | – | > 250 | < 20 | ~0.25 | 0.3 ± 0.21 | – | >250 | – |
| COc1ccc([C@@H]2[C@@H](c3ccsc3)C(=O)N2c2cc(OC)c(OC)c(OC)c2)cc1O [II] | – | – | – | – | – | – | – | – | – | – | – | – | – | – | – | 10 |
| COc1ccc([C@@H]2[C@@H](c3cccs3)C(=O)N2c2cc(OC)c(OC)c(OC)c2)cc1O [I] | – | – | – | – | – | – | – | – | – | – | – | – | – | – | – | 7 |
